How the values were obtained:
[1] = test system: TSLP-induced TARC release from PBMCs; assay: Assay 4: TSLP-induced TARC assay in human PBMC; format: cell-based; conditions: 10 ng/mL TSLP, 48 hours, read-out: pIC50 for inhibition of TSLP induced TARC (converted)
Description: Assay 4: In Vitro TSLP-Induced TARC Assay in Human PBMC
The binding of TSLP to its receptor induces a conformational change that activates JAK1 and JAK2 to phosphorylate various transcription factors including STAT3 and STAT5. In skin-resident immune cells, this triggers a cascade of intracellular events that result in cell proliferation, anti-apoptosis, dendritic cell migration, and production of Th2 cytokines and chemokines. During the acute phase of atopic dermatitis, the skin is invaded by Th2 lymphocytes. In primary peripheral blood mononuclear cells (PBMCs), TSLP has a pro-inflammatory effect by activating myeloid dendritic cells to attract and stimulate T cells. This process is mediated by thymus and activation-regulated chemokine (TARC/CCL17). […]
In this assay, it was shown that TSLP stimulation induces TARC release from PBMCs, and that this response is attenuated in a dose-dependent manner upon treatment with compound (I). […] After 48 hours, the cell supernatants were collected, and TARC was measured using Human CCL17/TARC Quantikine ELISA Kit.
For dose-response analysis, percent inhibition data were plotted vs. compound concentrations, and IC50 values were determined from a 4-parameter robust fit model with the GraphPad Prism software. Results may also be expressed as the negative logarithm of the IC50 value, pIC50.

[2] = Assay 7: epidermal and dermal deposition in freshly excised human skin; format: in vitro ADME; conditions: 0.5% ointment, about 40 hours continuous exposure
Method: Assay 7: Ex Vivo JAK Pharmacodynamic (PD) Assay Using Human Freshly Excised Skin An ex vivo JAK pharmacodynamics (PD) assay was conducted using human isolated skin tissue. The PD assay used fresh human skin (dermatome of 750 μm thickness) that was mounted in static Franz cells with a surface area of ˜0.5 cm^2. The receiver chambers of the Franz cells were filled with warm (37° C.) cornification media and placed in an incubator at 37° C. The skin was topically dosed with 10 μL ([…]) of compound (I) or vehicle and was left undisturbed overnight (˜24 hours). The next day, with no re-application of the test compound or vehicle, the media was replaced with a Th1-skewed stimulation cocktail consisting of TNFα, IFNγ and IL-12. The skin was left undisturbed for an additional 16 hours, and then harvested and processed for RNA extraction and qPCR of biomarkers: CXCL10, CCL2. GAPDH was used as an internal standard. The compound (I) was formulated in an ointment formulation at 0.5% strength. A total of three skin donors (tested in quadruplicates/sample/treatment) were used. Treatment effect was calculated as the percent increase or decrease in stimulation compared to the vehicle group. [table]

[3] = test system: IL-22 stimulated STAT3 phosphorylation in normal human epidermal keratinocytes; assay: Assay 14: inhibition of IL-22 stimulated pSTAT3 in normal human epidermal keratinocytes; format: cell-based; conditions: Keratinocyte, read-out: pIC50 for inhibition of IL-22 induced STAT3 phosphorylation (converted)
Method: Assay 14: Inhibition of IL-22 Stimulated pSTAT3 in Normal Human Epidermal Keratinocytes
The potency of test compounds for inhibition of interleukin-22 (IL-22) stimulated STAT3 phosphorylation was measured in the normal human epidermal keratinocytes (ATCC) using AlphaLisa. Phosphorylated STAT3 was measured via the AlphaLISA SureFire Ultra pSTAT3 (Tyr705) kit (PerkinElmer).
Primary epidermal keratinocytes were cultured in a 37° C., 5% CO2 humidified incubator in dermal cell basal medium (ATCC) supplemented with keratinocyte growth kit (ATCC) and 1× Pen/Strep (Life Technologies). […]
After cytokine stimulation, cells were lysed with 5 ul of 5× AlphaLisa Lysis Buffer (PerkinElmer) containing 1× PhosStop and Complete tablets (Roche). […] Phosphorylated STAT3 was measured via the pSTAT3 AlphaLisa kit (PerkinElmer). […] Luminescence was measured with excitation at 689 nm and emission at […] using an EnVision plate reader (PerkinElmer) under green filtered <100 lux light.
Luminescence signals were recorded and utilized to calculate the percent inhibition values based on DMSO and controls. For dose-response analysis, percent inhibition data were plotted vs. compound concentrations, and IC50 values were determined from a 4-parameter robust fit model with the Prism software.

[4] = in vitro; format: in vitro ADME; conditions: human, microsomes
Method: Assay 17: Human Liver Microsome Assay The objective of this assay was to assess the metabolic stability of test compounds in an in vitro human liver sub-fraction. Human liver microsomes obtained from Bioreclamation-IVT (Baltimore, Md.) were thawed on ice and diluted into 0.1M potassium phosphate buffer pH 7.4 to yield final incubation protein concentrations of 0.1 mg/mL. […] Incubations were conducted at 37° C. temperature and test aliquots were taken at time points 0, 5, 8, 15, 30 and 45 minutes. […] The resulting samples were injected onto an LC-MS/MS system for analysis. For each incubation, the peak area of the analytes in each t0 aliquot was set to 100% and the peak areas from subsequent time point aliquots were converted to percentage of parent compound remaining relative to t0. The percentage of parent compound remaining was converted to natural log scale and plotted versus time in minutes. A linear regression analysis was performed for the initial decline of the parent disappearance profile and a formula for the best-fit line determined. The slope of the resultant line was normalized to protein concentration in mg/mL protein or number of cells/mL and CLint was calculated as follows for liver microsomes: CLint (μL·min^−1·mg^−1)=(Slope×1000)/[protein,mg/mL]

For `CCS(=O)(=O)N1[C@@H]2CCC[C@H]1C[C@H](N(C)c1nc(CO)c(F)c(Nc3cc(C)[nH]n3)n1)C2` [Compound (I), (2-(((1R,3s,5S)-9-(ethylsulfonyl)-9-azabicyclo[3.3.1]nonan-3-yl)(methyl)amino)-5-fluoro-6-((5-methyl-1H-pyrazol-3-yl)amino)pyrimidin-4-yl)methanol], the IC50 [1] was 15.8 nM, the “PK-Tissue concentration (μM, mean ± SD) Dermis” value [2] was 6.1 ± 5.3 µM and the “PK-Tissue concentration (μM, mean ± SD) Epidermis” value [2] was 116.5 ± 91.9 µM. The IC50 [3] was 3.98 nM, the microsomal CLint at 0.1 μM ([4]; pH 7.4, HLM Clint) was 136 µL/min/mg and the microsomal CLint at 0.1 μM ([4]; pH 7.4, clearance class in human microsomes) was over 50 µL/min/mg.

Reference: patent US10774080B2, “Pyrimidine compound as JAK kinase inhibitor” (THERAVANCE BIOPHARMA R&D IP, LLC, priority 2017, dated 2020)
